What was measured:
AcylCoA oxidase (ACO) = assay: Real-time PCR gene expression in peripheral tissues: ACO; format: in vivo; conditions: liver; C57bl6j mice, high fat diet, 100 mg/kg/body weight in diet, 5 weeks
Method: (§1) The expression of 45 genes was measured by real-time PCR in peripheral tissues to identify genes that were differentially expressed in response to oral administration of oleoylethanolamide (OEA) or a non-hydrolysable OEA analog (KDS 5104), which affect satiety, lipid metabolism, fat utilization, food intake, and body fat mass.
(§2) Animals, diet, and experimental design. Adult male C57bl6j mice purchased at 8 weeks of age were individually housed and maintained ad libitum on high fat diet and water for 2 weeks. Seven mice were randomly allocated in 3 groups and fed with a high fat diet (lipids represented 50% of daily energy) for 2 weeks. […]
(§3) RNA extraction and gene expression. […] The RNA concentration was determined on nanodrop from the absorbance at 260 nm. […] Real-time quantitative PCR (RT-qPCR) were performed on cDNA obtained as described above using a high through put system (Biomek 3000, Beckman & Coulter, Fullerton, USA) and a Lightcycler 480 (Roche/Hitachi, Basel, Switzerland) with SYBR Green Master mix+kit (Eurogentec, Philadelphia, USA). […] Values were expressed as ratio of RNA levels relative to control mice (diets with 0 mg of OEA/kg/body weight) using ΔΔ(Ct) (Livak K J & Schmittgen T D, 2001, Methods 25:402-8). Gene expression of the following genes was measured (abbreviation and GenBank Accession shown in parentheses). […]

[1] = test system: Sterol regulatory element binding protein-c 1 (SREBP 1c); assay: Real-time PCR gene expression in peripheral tissues: SREBP1c; format: in vivo; conditions: C57bl6j mice, high fat diet, 100 mg/kg/body weight in diet, 5 weeks
Method: as §1
(§4) Animals, diet, and experimental design. Adult male C57bl6j mice purchased at 8 weeks of age were individually housed and maintained ad libitum on high fat diet and water for 2 weeks. Seven mice were randomly allocated in 3 groups and fed with a high fat diet (lipids represented 50% of daily energy) for 2 weeks. For one kilogram, the composition of the high fat diet was: 235 g casein, 201 g saccharose, 3.5 g L-cystine, 85 g starch, 116 g maltodextrin, 60 g cellulose, 12 g vitamins mix (AIN-93M, UPAE, Jouy-en-Josas, France), 51.5 g mineral mix (AIN-93Vx, UPAE, Jouy-en-Josas, France), and 236 g lard. Then, either OEA or KDS 5104 was added to the diet at a concentration of 100 mg/kg/body weight. The mice were kept under treatment for 5 weeks.
(§5) Sampling. At the end of the experimental period, mice were sacrificed by blood drawing (cardiac puncture) after anesthesia with isoflurane. Plasma was obtained by centrifugation (1,000 g for 10 min at 4° C.). Mesenteric, epididymal, inguinal and peritoneal adipose depots, as well as liver, stomach, small intestine mucosa, pancreas, and gastrocnemian muscle were removed and frozen into liquid nitrogen. Plasma, urine, feces, and organ samples were kept at −80° C. until analysis.
(§6) RNA extraction and gene expression. Total RNA from liver, intestine mucous membrane, adipose tissues, gastrocnemian muscle, pancreas and stomach were extracted with TRIzol reagent (Invitrogen, Carlsbad, USA) according to the manufacturer's instruction. The RNA concentration was determined on nanodrop from the absorbance at 260 nm. Retro-transcription PCRs to synthesize cDNA were performed using an Applied Biosystem Thermal Cycler 2720 and Superscript II (Invitrogen, Carlsbad, USA) according to manufacturer's protocol. Real-time quantitative PCR (RT-qPCR) were performed on cDNA obtained as described above using a high through put system (Biomek 3000, Beckman & Coulter, Fullerton, USA) and a Lightcycler 480 (Roche/Hitachi, Basel, Switzerland) with SYBR Green Master mix+kit (Eurogentec, Philadelphia, USA). Primers for the selected genes were generated using online informatics assistance from the Lightcycler manufacturer (Roche). Databases used to identify the genes were (1) the NCBI database (GenBank) and (2) the IHOP (Information Hyperlinked over Protein) database (www.ihop-net.org/UniPub/iHOP/bng/). Values were expressed as ratio of RNA levels relative to control mice (diets with 0 mg of OEA/kg/body weight) using ΔΔ(Ct) (Livak K J & Schmittgen T D, 2001, Methods 25:402-8). Gene expression of the following genes was measured (abbreviation and GenBank Accession shown in parentheses).
(§7) Statistical analysis. […] Statistical analysis of physiological parameters and gene expression data was performed by one-way ANOVA on Statview software (SAS Institute, Cary, USA). Daily food intake was analyzed using two-way ANOVA on Statview software. Statistical significance was set up at the P<0.05 level, the P<0.01 level and the P<0.001 level. For statistical analysis of the gene expression data, values were calculated relative to 18S expression for each mouse and gene.

[2] = test system: Sterol regulatory element binding protein-C 2 (SREBP2 1); assay: Real-time PCR gene expression in peripheral tissues: SREBP2; format: in vivo; conditions: liver; C57bl6j mice, high fat diet, 100 mg/kg/body weight in diet, 5 weeks
Method: as §1, §2, §3

[3] = test system: Stearoyl-Coenzyme A desaturase 1 (SCD 1); assay: Real-time PCR gene expression in peripheral tissues: SCD1; format: in vivo; conditions: C57bl6j mice, high fat diet, 100 mg/kg/body weight in diet, 5 weeks
Method: as §1, §4, §5, §6, §7

[4] = test system: Fatty acid transporter/cluster of differentiation 36 (FAT/CD 36); assay: Real-time PCR gene expression in peripheral tissues: FAT/CD36; format: in vivo; conditions: C57bl6j mice, high fat diet, 100 mg/kg/body weight in diet, 5 weeks
Method: as §1, §4, §5, §6
Statistical analysis. Results are presented as means±standard error of the means (SEM). Statistical analysis of physiological parameters and gene expression data was performed by one-way ANOVA on Statview software (SAS Institute, Cary, USA). Daily food intake was analyzed using two-way ANOVA on Statview software. Statistical significance was set up at the P<0.05 level, the P<0.01 level and the P<0.001 level. For statistical analysis of the gene expression data, values were calculated relative to 18S expression for each mouse and gene.

[5] = test system: Fasting induced adipocyte factor (Fiaf); assay: Real-time PCR gene expression in peripheral tissues: Fiaf; format: in vivo; conditions: C57bl6j mice, high fat diet, 100 mg/kg/body weight in diet, 5 weeks
Method: as §1, §4, §5, §6, §7

Adiponectin = assay: Real-time PCR gene expression in peripheral tissues: adiponectin; format: in vivo; conditions: C57bl6j mice, high fat diet, 100 mg/kg/body weight in diet, 5 weeks
Method: as §1, §4, §5
RNA extraction and gene expression. Total RNA from liver, intestine mucous membrane, adipose tissues, gastrocnemian muscle, pancreas and stomach were extracted with TRIzol reagent (Invitrogen, Carlsbad, USA) according to the manufacturer's instruction. The RNA concentration was determined on nanodrop from the absorbance at 260 nm. […] Real-time quantitative PCR (RT-qPCR) were performed on cDNA obtained as described above using a high through put system (Biomek 3000, Beckman & Coulter, Fullerton, USA) and a Lightcycler 480 (Roche/Hitachi, Basel, Switzerland) with SYBR Green Master mix+kit (Eurogentec, Philadelphia, USA). […] Values were expressed as ratio of RNA levels relative to control mice (diets with 0 mg of OEA/kg/body weight) using ΔΔ(Ct) (Livak K J & Schmittgen T D, 2001, Methods 25:402-8). Gene expression of the following genes was measured (abbreviation and GenBank Accession shown in parentheses).
Statistical analysis. […] Daily food intake was analyzed using two-way ANOVA on Statview software. […] For statistical analysis of the gene expression data, values were calculated relative to 18S expression for each mouse and gene.

[6] = test system: G protein coupled receptor 119 (GPR 119); assay: Real-time PCR gene expression in peripheral tissues: GPR119; format: in vivo; conditions: proximal intestine; C57bl6j mice, high fat diet, 100 mg/kg/body weight in diet, 5 weeks
Method: as §1, §2, §3

Cholescystokinin (CCK) = assay: Real-time PCR gene expression in peripheral tissues: CCK; format: in vivo; conditions: proximal intestine; C57bl6j mice, high fat diet, 100 mg/kg/body weight in diet, 5 weeks
Method: as §1, §2, §3

[7] = test system: Cannabinoid receptor 1 (CB 1); assay: Real-time PCR gene expression in peripheral tissues: CB1; format: in vivo; conditions: C57bl6j mice, high fat diet, 100 mg/kg/body weight in diet, 5 weeks
Method: as §1, §4, §5, §6, §7

[8] = test system: N-acylsphingosine amidohydrolase-like (NAAA); assay: Real-time PCR gene expression in peripheral tissues: NAAA; format: in vivo; conditions: C57bl6j mice, high fat diet, 100 mg/kg/body weight in diet, 5 weeks
Method: as §1, §4, §5, §6, §7

[9] = test system: overall gene expression pattern; assay: Multivariate statistical analysis of overall gene expression pattern; format: in vivo; conditions: C57bl6j mice, high fat diet, 100 mg/kg/body weight in diet, 5 weeks
Method: as §1, §2, §3

[10] = target: G-protein coupled cannabinoid receptor GPR119 (Homo sapiens, UniProt Q8TDV5); conditions: cited from earlier work
G-protein coupled cannabinoid receptor GPR119, sequence (Q8TDV5 whole entry): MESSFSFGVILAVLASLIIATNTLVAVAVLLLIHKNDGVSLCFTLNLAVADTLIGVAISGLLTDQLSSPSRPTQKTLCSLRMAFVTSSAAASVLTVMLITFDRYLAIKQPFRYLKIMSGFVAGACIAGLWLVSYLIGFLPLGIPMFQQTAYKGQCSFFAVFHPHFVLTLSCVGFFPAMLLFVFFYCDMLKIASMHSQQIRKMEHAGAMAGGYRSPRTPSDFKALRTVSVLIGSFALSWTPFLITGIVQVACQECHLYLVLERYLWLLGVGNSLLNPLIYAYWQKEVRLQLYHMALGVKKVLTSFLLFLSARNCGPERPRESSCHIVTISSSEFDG

SMILES: CCCCCCCC/C=C\CCCCCCCC(=O)NCCO [OEA, N-oleoyl-ethanolamide]
- ACO l, ratio of RNA levels relative to control mice (AcylCoA oxidase (ACO)): 1.06
- SREBP1c at ep, ratio of RNA levels relative to control mice ([1]; epidydimal adipose tissue): 1.08
- SREBP1c l, ratio of RNA levels relative to control mice ([1]; liver): 1.24
- SREBP1c at per, ratio of RNA levels relative to control mice ([1]; peritoneal adipose tissue): −1.39
- SREBP2 l, ratio of RNA levels relative to control mice [2]: 1.22
- SCD 1 at ep, ratio of RNA levels relative to control mice ([3]; epidydimal adipose tissue): 1.00
- SCD1 l, ratio of RNA levels relative to control mice ([3]; liver): −2.13
- SCD 1 at per, ratio of RNA levels relative to control mice ([3]; peritoneal adipose tissue): −1.30
- FAT/CD36 at ep, ratio of RNA levels relative to control mice ([4]; epidydimal adipose tissue): −1.88
- FAT/CD36 l, ratio of RNA levels relative to control mice ([4]; liver): 1.45
- FAT/CD36 at per, ratio of RNA levels relative to control mice ([4]; peritoneal adipose tissue): −1.81
- FAT/CD36 i, ratio of RNA levels relative to control mice ([4]; proximal intestine): 1.61
- Fiaf at ep, ratio of RNA levels relative to control mice ([5]; epidydimal adipose tissue): −1.41
- Fiaf at per, ratio of RNA levels relative to control mice ([5]; peritoneal adipose tissue): −2.42
- Fiaf i, ratio of RNA levels relative to control mice ([5]; proximal intestine): 1.15
- adiponectin at ep, ratio of RNA levels relative to control mice (Adiponectin; epidydimal adipose tissue): −1.14
- adiponectin at per, ratio of RNA levels relative to control mice (Adiponectin; peritoneal adipose tissue): −2.08
- GPR119 i, ratio of RNA levels relative to control mice [6]: 1.97
- CCK i, ratio of RNA levels relative to control mice (Cholescystokinin (CCK)): 1.57
- CB1 at ep, ratio of RNA levels relative to control mice ([7]; epidydimal adipose tissue): −1.94
- CB1 at per, ratio of RNA levels relative to control mice ([7]; peritoneal adipose tissue): −5.27
- CB1 i, ratio of RNA levels relative to control mice ([7]; proximal intestine): −1.02
- NAAA at ep, ratio of RNA levels relative to control mice ([8]; epidydimal adipose tissue): 1.36
- NAAA at per, ratio of RNA levels relative to control mice ([8]; peritoneal adipose tissue): 1.03
- NAAA i, ratio of RNA levels relative to control mice ([8]; proximal intestine): 1.85
- overall gene expression pattern (multivariate statistical analysis) [9]: significant shift
- binding to GPR119 [10]: can also bind

— patent US8742082B2, “Compositions and methods for influencing satiety, lipid metabolism, and fat utilization” (Nestec S.A., priority 2008, dated 2014)
